Experimental data as given in patent publication EP4644389A1, “PRMT5-MTA INHIBITOR” (Suzhou Puhe Biopharma Co., Ltd., priority 2022, dated 2024).
Where two headings read alike, the source gives them in different places.

Columns and labels:
HCT116-MTAPwt = test: 2D anti-proliferation assay (CTG luminescence), wild-type HCT116 cells; type: cell-based; details: Homo sapiens, HCT-116, 7-10 days incubation
Experimental: By testing the activity of both of them, the inhibitory effect and selectivity of the molecules of the present invention for PRMT5 at the cellular level were shown.
(§1) HCT116 wild-type and MTAP-deficient cells were cultured in MCCOYS 5A medium containing 10% FBS and 1% penicillin-streptomycin and incubated in a 37°C, 5% CO2 incubator. A 40 µL cell suspension was added to each well of a 384-well microplate. Using Echo, 40 nL of the compound at different concentrations were added to each well, followed by incubation in a 37°C, 5% CO2 incubator for 7-10 days. 40 µL of CTG solution (Promega, Cat No. G7573) was added to each well and incubated away from light in a 37°C, 5% CO2 incubator for 30 minutes. Luminescence was measured using an Envision multimode plate reader (Perkin Elmer, Catalog No. Envision 2104). The luminescence signal was proportional to the ATP content in the system, and the ATP content directly reflected the number of viable cells in the system.
ICso value calculation: [formula] • X: Log value of compound concentration • Y: Inhibition rate (%) Table 1: 2D Anti-proliferation Effects of Compounds on HTC116-MTAP del and Wild-type Colorectal Cancer HCT-116 Cell Lines.

HCT116-MTAPdel = test: 2D anti-proliferation assay (CTG luminescence), MTAP-deficient HCT116 cells; type: cell-based; details: for IC50: Homo sapiens; for HCT116 WT/MTAPdel Selectivity: ratio of IC50 HCT116 WT / MTAPdel
Experimental: as §1

[1] = Caco-2 membrane permeability assay; type: in vitro ADME; details: human; for efflux ratio: Caco-2, Efflux Ratio = Papp (B-A)/Papp (A-B); for Papp A→B / Papp B→A: Caco-2, apical pH 6.5, basolateral pH 7.4
Experimental: (§2) Evaluation of membrane permeability of the molecules of the present invention. Samples will be analyzed using LC-MS to estimate the apparent permeability coefficient (Papp) of the compound in Caco-2 monolayer cells, wherein the pH of the apical chamber is 6.5, and the pH of the basolateral chamber is 7.4. The P-gp efflux transporter, BCRP, and MRP2 inhibitors (50 µM quinidine, 30 µM benzbromarone, and 20 µM sulfasalazine) can block the active efflux transport of the compound. The data will be used for calculating apparent permeability (Papp). Papp = (VA×⌊drug⌋acceptor)/(Area×Time×⌊drug⌋initial,donor) [formula] wherein, VA is the volume of the receptor well (unit: mL), area is the membrane surface area (for Transwell-96 well permeable support, it is 0.143 cm^2), and time is the total transport time (unit: seconds). Efflux Ratio = Papp (B−A)/Papp (A−B) [formula]

Caco-2 monolayer cells = test: Caco-2 membrane permeability assay; type: in vitro ADME; details: Caco-2, Efflux Ratio = Papp (B-A)/Papp (A-B)
Experimental: as §2

[2] = Liver microsomal stability, human; type: in vitro ADME; details: human liver microsomes 0.5 mg/mL, compound 1 µM, NADPH 1 mM, 60 minutes
Experimental: Microsomal stability experiment of the compound. The details are as follows: A microsomal stability test was conducted on the compounds of the present invention. The test compounds were co-incubated with liver microsomes from different species, with or without the addition of NADPH. In the test system, the final concentration of the test compound was 1 µM, the final concentration of NADPH was 1 mM, and the final concentration of liver microsomes was 0.5 mg/mL.

[3] = HCT-116, HCT116 MTAP-deficient cells, 7-10 days incubation, CTG, read-out: HCT116-MTAPdel/IC50/nM
[4] = HCT-116, read-out: HCT116-MTAPdel/IC50/nM

IC50 (HCT116-MTAPwt) [nM] | IC50 (HCT116-MTAPdel; [3]) [nM] | Compound | HCT116 WT/MTAPdel Selectivity (HCT116-MTAPdel) | also measured
> 10000 | 93 | C[C@H]1COC[C@@H](c2ccc(C(F)(F)F)cn2)N1C(=O)c1cc2cc(C3CC3)c(N)nc2cc1F [Compound P2] | >108 | 
> 10000 | 2870 | Nc1nc2cc(F)c(C(=O)N3CCOCC3c3ccc(C(F)(F)F)cn3)cc2cc1C1CC1 (stereo not shown) [Compound P3] | >4 | 
> 10000 | 790 | C[C@H]1COC[C@@H](c2ccc(C(F)(F)F)cn2)N1C(=O)c1ccc2nc(N)c(C3CC3)cc2c1 [Compound P4] | >13 | 
> 10000 | 612 | CC(C)N1CCN(c2ccc([C@@H]3COC[C@H](C)N3C(=O)c3cc4cc(C5CC5)c(N)nc4cc3F)cc2)CC1 [Compound P5] | >16 | 
 | 156 | C[C@H]1COC[C@@H](c2ccc(OC(F)(F)F)cc2)N1C(=O)c1cc2cc(C3CC3)c(N)nc2cc1Cl [Compound P6] |  | 
1640 | 230 | Cc1c(C2CC2)c(N)nc2cc(Cl)c(C(=O)N3[C@H](C)COC[C@@H]3c3ccc(C(F)(F)F)cn3)cc12 [Compound P7a] | 7 | 
3800 | 2540 | Cc1c(C2CC2)c(N)nc2cc(Cl)c(C(=O)N3[C@@H](C)COC[C@H]3c3ccc(C(F)(F)F)cn3)cc12 [Compound P7b] | 2 | 
> 10000 | 96 | C[C@H]1COC[C@@H](c2ccc(OC(F)F)nn2)N1C(=O)c1cc2cc(C3CC3)c(N)nc2cc1F [Compound P8] | >104 | 
936 | 16 | Cc1c(C2CC2)c(N)nc2cc(F)c(C(=O)N3[C@@H](C)COC[C@H]3c3ccc(-c4cncc(Cl)c4)cn3)cc12 [Compound P9] | 59 | 
1860 | 34 | Cc1c(C2CC2)c(N)nc2cc(F)c(C(=O)N3[C@@H](C)COC[C@H]3c3ccc(-c4cncc(C(F)(F)F)c4)cn3)cc12 [Compound P10] | 55 | 
72 | 17 | CC(=O)N1CCC(Nc2cc(C(=O)NC[C@H](O)CN3CCc4ccccc4C3)ncn2)CC1 [GSK3326595, reference compound] | 4 | 

The next lines start with the compound.

Compound | IC50 (HCT116-MTAPwt) [nM] | IC50 (HCT116-MTAPdel; [3]) [nM] | HCT116 WT/MTAPdel Selectivity (HCT116-MTAPdel) | also measured
Cc1c(CO)c(N)nc2cc(F)c(C(=O)N3C(C)COCC3c3ccc(-c4cncc(F)c4)cn3)cc12 (racemic) [Compound A3] | 1450 | 5 | 291 | 
Cc1c(CO)c(N)nc2cc(F)c(C(=O)N3C(C)COCC3c3ccc(-c4cncc(Cl)c4)cn3)cc12 (racemic) [Compound A4] | 1140 | 7 | 164 | 
Cc1c(CO)c(N)nc2cc(F)c(C(=O)N3C(C)COCC3c3ccc(OC(F)(F)F)cc3)cc12 (racemic) [Compound A5] | 1360 | 18 | 75 | 
Cc1c(CO)c(N)nc2cc(F)c(C(=O)N3C(C)COCC3c3ccc(C(F)(F)F)cc3)cc12 (racemic) [Compound A6] | 1020 | 7 | 145 | 
Cc1c(CO)c(N)nc2cc(F)c(C(=O)N3CC(C)CCC3c3ccc4scnc4c3)cc12 (racemic) [Compound A7] | 3880 | 88 | 44 | 
Cc1c(CO)c(N)nc2cc(F)c(C(=O)N3CC(C)CCC3c3ccc4ncsc4c3)cc12 (racemic) [Compound A8] | 2000 | 150 | 13 | 
Cc1c(CO)c(N)nc2cc(F)c(C(=O)N(C)C3COc4cc(C(F)(F)F)ccc43)cc12 (racemic) [Compound A9] | 4700 | 27 | 174 | efflux ratio [1]: 1.2; Papp A→B [1]: 5.1 ×10⁻⁶ cm/s; Papp B→A [1]: 5.9 ×10⁻⁶ cm/s; Efflux (Caco-2 monolayer cells): < 2; CLint scaled at 1 µM [2]: 3.6 mL/min/kg
Cc1c(CO)c(N)nc2cc(F)c(C(=O)N(C)C3COCc4nc(C(F)(F)F)ccc43)cc12 (racemic) [Compound A10] | > 10000 | 18 | >556 | efflux ratio [1]: 3.8; Papp A→B [1]: 8.1 ×10⁻⁶ cm/s; Papp B→A [1]: 31 ×10⁻⁶ cm/s; CLint scaled at 1 µM [2]: 11.1 mL/min/kg
Cc1c(CO)c(N)nc2cc(F)c(C(=O)N(C)[C@H]3COCc4nc(-c5cncc(Cl)c5)ccc43)cc12 (racemic) [Compound A11] | 4380 | 26 | 168 | 
Cc1c(CO)c(N)nc2cc(F)c(C(=O)N(C)[C@H]3COCc4nc(-c5cncc(F)c5)ccc43)cc12 (racemic) [Compound A12] | 3250 | 36 | 90 | 
Cc1c(CO)c(N)nc2cc(F)c(C(=O)N(C)[C@H]3COCc4nc(-c5cncc(C(F)(F)F)c5)ccc43)cc12 (racemic) [Compound A13] | 3750 | 32 | 117 | 
CN(C(=O)c1ccc2nc(N)c(C3CC3)cc2c1)C1COc2cc(C(F)(F)F)ccc21 (racemic) [Compound H1] | > 10000 | 4250 | >2 | 
CN(C(=O)c1ccc2nc(N)c(C3CC3)cc2c1)C1COc2cc(-c3cnn(C)c3)ccc21 (racemic) [Compound H4] | > 10000 | 4350 | >3 | 
Cc1cc2cc(C(=O)N(Cc3ccc(C(F)(F)F)cn3)[C@H](C)c3ncccn3)ccc2nc1N [AM9747, reference compound] | 237 |  |  | IC50 (HCT116-MTAPdel; [4]): 7 nM
Cc1c(CO)c(N)nc2cc(Cl)c(C(=O)N3[C@@H](C)COC[C@H]3c3ccc(C(F)(F)F)cn3)cc12 [Compound A2a] | > 10000 | 3030 | >3 | 
Cc1c(CO)c(N)nc2cc(Cl)c(C(=O)N3[C@H](C)COC[C@@H]3c3ccc(C(F)(F)F)cn3)cc12 [Compound A2b] | 398 | 4 | 100 | 
CN(C(=O)c1ccc2nc(N)c(C3CC3)cc2c1)C1COc2cc(OC(F)(F)F)ccc21 (stereo not shown) [Compound H2] | > 10000 | 6290 | >1 | 
CN(C(=O)c1ccc2nc(N)c(C3CC3)cc2c1)C1COCc2nc(C(F)(F)F)ccc21 (stereo not shown) [Compound H3] | > 10000 | 926 | >11 | 
CN(C(=O)c1ccc2nc(N)c(C3CC3)cc2c1)C1COc2cc(-c3cnn(C(F)(F)F)c3)ccc21 (stereo not shown) [Compound H5] | 8020 | 2960 | 3 | 
Cc1c(C2CC2)c(N)nc2cc(F)c(C(=O)N(C)C3COCc4nc(C(F)(F)F)ccc43)cc12 (stereo not shown) [Compound H6] | 532 | 33 | 16 | 
Cc1c(C2CC2)c(N)nc2cc(Cl)c(C(=O)N(C)C3COCc4nc(C(F)(F)F)ccc43)cc12 (stereo not shown) [Compound H7] | 1110 | 29 | 38 | 
Cc1cc(NC(=O)C(=O)N2C[C@@H](C)CC[C@@H]2c2ccc3scnc3c2)cnc1N [TNG908, reference compound] | 1230 |  | 23 | selectivity (HCT116-MTAPdel; HCT116 WT vs MTAP-deleted): 23 fold; IC50 (HCT116-MTAPdel; [4]): 54 nM
